Laboratory results reported in the supplement of paper PMC13207355.

Tests used:
Conditions in all cases: exposure time: 72 h
FT3469 [1] = normal neural stem cell line; test: surviving fraction (nuclei count normalised to DMSO); higher = more cells surviving (less toxic)
E28 [2] = patient-derived glioblastoma stem cells of classical subtype; test: as above
E31 [3] = patient-derived glioblastoma stem cells of proneural subtype; test: as above
E34 [4] = patient-derived glioblastoma stem cells of proneural subtype; test: as above
E57 [5] = patient-derived glioblastoma stem cells of mesenchymal subtype; test: as above
E21 [6] = patient-derived glioblastoma stem cells of mesenchymal subtype; test: as above
E13 [7] = patient-derived glioblastoma stem cells of classical subtype; test: as above
FT3469 [8] = test: phenotypic distance (Euclidean, principal components) from DMSO controls (arbitrary units); higher = stronger morphological change
E28 [9] = test: as above
E31 [10] = test: as above
E34 [11] = test: as above
E57 [12] = test: as above
E21 [13] = test: as above
E13 [14] = test: as above
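Throughout, for phenotypic distance (Euclidean, principal components) from DMSO controls: cell Painting imaging in 384-well plates, CellProfiler features reduced to at least 20 principal components, Euclidean distance versus same-plate DMSO vehicle wells (0.1% v/v), median over six images per well.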
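Throughout, for surviving fraction (nuclei count normalised to DMSO): nuclei counted by high-content imaging of Hoechst-stained cells in laminin-coated 384-well plates, relative to 0.1% DMSO vehicle wells, with staurosporine as cell-death control.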

## Cc1ccc(/C=N/NC(=O)c2n[nH]c3c2CCCC3)cc1 [Suprafenacine]
FT3469 [1]; 4.1 nM
  surviving fraction: 0.873
FT3469 [1]; 12.3 nM
  surviving fraction: 0.804
FT3469 [1]; 37 nM
  surviving fraction: 0.848
FT3469 [1]; 111.1 nM
  surviving fraction: 0.492
FT3469 [1]; 333.3 nM
  surviving fraction: 0.527
FT3469 [1]; 1000 nM
  surviving fraction: 0.471
FT3469 [1]; 3000 nM
  surviving fraction: 0.295
E28 [2]; 4.1 nM
  surviving fraction: 0.954
E28 [2]; 12.3 nM
  surviving fraction: 0.896
E28 [2]; 37 nM
  surviving fraction: 0.922
E28 [2]; 111.1 nM
  surviving fraction: 0.742
E28 [2]; 333.3 nM
  surviving fraction: 0.325
E28 [2]; 1000 nM
  surviving fraction: 0.31
E28 [2]; 3000 nM
  surviving fraction: 0.217
E31 [3]; 4.1 nM
  surviving fraction: 0.95
E31 [3]; 12.3 nM
  surviving fraction: 0.845
E31 [3]; 37 nM
  surviving fraction: 0.709
E31 [3]; 111.1 nM
  surviving fraction: 0.454
E31 [3]; 333.3 nM
  surviving fraction: 0.0666
E31 [3]; 1000 nM
  surviving fraction: 0.0444
E31 [3]; 3000 nM
  surviving fraction: 0.0399
E34 [4]; 4.1 nM
  surviving fraction: 1.01
E34 [4]; 12.3 nM
  surviving fraction: 0.905
E34 [4]; 37 nM
  surviving fraction: 0.938
E34 [4]; 111.1 nM
  surviving fraction: 0.69
E34 [4]; 333.3 nM
  surviving fraction: 0.409
E34 [4]; 1000 nM
  surviving fraction: 0.375
E34 [4]; 3000 nM
  surviving fraction: 0.237
E57 [5]; 4.1 nM
  surviving fraction: 0.914
E57 [5]; 12.3 nM
  surviving fraction: 0.922
E57 [5]; 37 nM
  surviving fraction: 0.883
E57 [5]; 111.1 nM
  surviving fraction: 0.685
E57 [5]; 333.3 nM
  surviving fraction: 0.0911
E57 [5]; 1000 nM
  surviving fraction: 0.0842
E57 [5]; 3000 nM
  surviving fraction: 0.0511
E21 [6]; 4.1 nM
  surviving fraction: 0.963
E21 [6]; 12.3 nM
  surviving fraction: 0.931
E21 [6]; 37 nM
  surviving fraction: 0.982
E21 [6]; 111.1 nM
  surviving fraction: 0.453
E21 [6]; 333.3 nM
  surviving fraction: 0.0832
E21 [6]; 1000 nM
  surviving fraction: 0.113
E21 [6]; 3000 nM
  surviving fraction: 0.0664
E13 [7]; 4.1 nM
  surviving fraction: 0.909
E13 [7]; 12.3 nM
  surviving fraction: 0.853
E13 [7]; 37 nM
  surviving fraction: 0.86
E13 [7]; 111.1 nM
  surviving fraction: 0.536
E13 [7]; 333.3 nM
  surviving fraction: 0.144
E13 [7]; 1000 nM
  surviving fraction: 0.235
E13 [7]; 3000 nM
  surviving fraction: 0.1
FT3469 [8]; 4.1 nM
  phenotypic distance: 1.07
FT3469 [8]; 12.3 nM
  phenotypic distance: 1.84
FT3469 [8]; 37 nM
  phenotypic distance: 1.31
FT3469 [8]; 111.1 nM
  phenotypic distance: 2.86
FT3469 [8]; 333.3 nM
  phenotypic distance: 3.59
FT3469 [8]; 1000 nM
  phenotypic distance: 3.7
FT3469 [8]; 3000 nM
  phenotypic distance: 6.28
E28 [9]; 4.1 nM
  phenotypic distance: 0.615
E28 [9]; 12.3 nM
  phenotypic distance: 0.72
E28 [9]; 37 nM
  phenotypic distance: 0.724
E28 [9]; 111.1 nM
  phenotypic distance: 1.34
E28 [9]; 333.3 nM
  phenotypic distance: 3.15
E28 [9]; 1000 nM
  phenotypic distance: 4.1
E28 [9]; 3000 nM
  phenotypic distance: 5.78
E31 [10]; 4.1 nM
  phenotypic distance: 0.29
E31 [10]; 12.3 nM
  phenotypic distance: 1.07
E31 [10]; 37 nM
  phenotypic distance: 1.19
E31 [10]; 111.1 nM
  phenotypic distance: 2.14
E31 [10]; 333.3 nM
  phenotypic distance: 6.25
E31 [10]; 1000 nM
  phenotypic distance: 9.97
E31 [10]; 3000 nM
  phenotypic distance: 12.3
E34 [11]; 4.1 nM
  phenotypic distance: 0.442
E34 [11]; 12.3 nM
  phenotypic distance: 1.02
E34 [11]; 37 nM
  phenotypic distance: 0.706
E34 [11]; 111.1 nM
  phenotypic distance: 1.69
E34 [11]; 333.3 nM
  phenotypic distance: 5.34
E34 [11]; 1000 nM
  phenotypic distance: 6.45
E34 [11]; 3000 nM
  phenotypic distance: 8.8
E57 [12]; 4.1 nM
  phenotypic distance: 1.71
E57 [12]; 12.3 nM
  phenotypic distance: 0.929
E57 [12]; 37 nM
  phenotypic distance: 0.819
E57 [12]; 111.1 nM
  phenotypic distance: 3.04
E57 [12]; 333.3 nM
  phenotypic distance: 5.2
E57 [12]; 1000 nM
  phenotypic distance: 5.41
E57 [12]; 3000 nM
  phenotypic distance: 6.18
E21 [13]; 4.1 nM
  phenotypic distance: 0.928
E21 [13]; 12.3 nM
  phenotypic distance: 0.73
E21 [13]; 37 nM
  phenotypic distance: 1.18
E21 [13]; 111.1 nM
  phenotypic distance: 4.45
E21 [13]; 333.3 nM
  phenotypic distance: 9.28
E21 [13]; 1000 nM
  phenotypic distance: 6.44
E21 [13]; 3000 nM
  phenotypic distance: 9.19
E13 [14]; 4.1 nM
  phenotypic distance: 0.782
E13 [14]; 12.3 nM
  phenotypic distance: 0.752
E13 [14]; 37 nM
  phenotypic distance: 1.13
E13 [14]; 111.1 nM
  phenotypic distance: 3.22
E13 [14]; 333.3 nM
  phenotypic distance: 7.1
E13 [14]; 1000 nM
  phenotypic distance: 7.86
E13 [14]; 3000 nM
  phenotypic distance: 5.88
